Patent US20100234362A1, “USE OF DIAZOXIDE FOR SUPPRESSING THE PLASMA INSULIN LEVEL IN A MAMMAL” (priority 2007, published 2010)
Read-outs that look alike come from different tables or passages of the source.

Experiments:
insulin secretion = details: at comparable dosages; cited from earlier work
[1] = 8-week weight-loss diet, hyperinsulinaemic obese subjects; cited from earlier work
[2] = cited from earlier work
[3] = system: blood glucose and insulin levels; details: about 0.4 to about 0.8 mg/kg body weight before each meal; subjects with postprandial hyperglycemia and reactive hypoglycemia; cited from earlier work
[4] = Plasma Diazoxide level by HPLC/UV; type: in vivo; details: male, human, at six months, mean daily dose 600±54 mg (5.7±0.5 mg/kg), oral, three times a day, read-out: plasma DZX level
From the text: Diazoxide was taken at t−30.

plasma insulin levels = details: one week, cited from earlier work
[5] = for Weight: 14 obese men after 6 months oral Diazoxide (mean 600±54 mg/day), mean ± SE, baseline 115.1 ± 3.4; for Waist circumference: baseline 116.9 ± 1.4
Method: All subjects received were explained the physiological principle of this study. They also received dietary advice to reduce caloric intake to the calculated basal requirements for ideal body weight (based on the Harrison-Bennedict equation) and the instruction to increase walking exercise to at least 30 minutes a day. All subjects were allowed to do more physical exercise; the amount of daily physical exercise was not recorded. All subjects were instructed how to perform home glucose measurements (HGM). Blood samples were taken in the fasting state, (a) 2 hours after breakfast, just before lunch, (b) 2 hours after lunch, just before dinner, (c) 2 hours after dinner, at bedtime, and (d) at 3 am.
Baseline measurements included body weight, body height, abdominal circumference, body composition by total body dual energy X-ray absorptiometry (DEXA), supine and upright blood pressure, HGM for two days and the assessment of serum glucose levels and serum insulin levels in response to a standarised test meal. […] Venous blood samples were taen through a venous line inserted into the forearm at −30, 0, 30, 45, 60, 90, 120, 180, 240 and 300 minutes.
After completion of all baseline measurements, the subjects started Diazoxide 50 mg (three times a day) which was taken before each meal. Subsequently, the outpatient clinic was visited every month where the following data were recorded: body weight, abdominal circumference, supine and upright blood pressure, the results of a two-day, 8-point HGM performed in the week preceding the visit and adverse effects. Every visit, the daily Diazoxide dose was increased by 3×50 mg until a maximum of 300 mg (three times a day) was reached or until adverse side effects occurred. The Diazoxide dose was not increased if clinically relevant edema persisted for ore than a month, if upright systolic blood pressure was <110 mm Hg, if upright diastolic blood pressure was <70 mm Hg, or if fasting home glucose level was >7 nmol/l, or non-fasting home glucose level was >11 nmol/l.
After six months of treatment, all measurements were repeated including the meal test. Diazoxide was taken at t−30. Blood samples taken during the meal test at t120 were also analysed for Diazoxide levels. […] The results of total body DEXA were expressed as kg lean body mass, fat mass and bone mass. Normal values for serum glucose levels and serum insuli levels during the test meal were obtained by performing this test in ten healthy, age-matched, non-obese men (BMI about 20 to about 25 kg/m^2).
All data are shown as mean values±standard error (SE). The paired t-test was used to analyse the response to Diazoxide treatment, employing the Bonferoni correction for multiple comparisons. A p-value of less than 0.05 was considered to be statistically significant.

[6] = maximal 200 mg/day divided in three dosages, eight weeks, 24 hyperinsulinemic patients; placebo 5.0 kg; cited from earlier work
[7] = system: plasma insulin and glucose levels; assay: Standardised 500 kCal meal test before and after six months of Diazoxide: plasma glucose and insulin; type: in vivo, human; design: Whole Body Insulin Sensitivity: unit not given here
[8] = literature clinical trials; cited from earlier work
[9] = oral 300 mg per day divided in three dosages
[10] = DEXA, 6 months vs baseline, P<0.001
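Wherever change of LDL cholesterol is given: obese men given oral Diazoxide before meals with dose raised monthly up to 300 mg three times daily, plus diet and walking advice, measured at baseline and after six months.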
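Wherever change of systolic blood pressure is given: obese men given oral Diazoxide before meals with dose raised monthly up to 300 mg three times daily, plus diet and walking advice, measured at baseline and after six months.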
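Wherever decrease of diastolic blood pressure is given: obese men given oral Diazoxide before meals with dose raised monthly up to 300 mg three times daily, plus diet and walking advice, measured at baseline and after six months.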
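Wherever increase of adiponectin levels is given: obese men given oral Diazoxide before meals with dose raised monthly up to 300 mg three times daily, plus diet and walking advice, measured at baseline and after six months.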

CNC(=NS(=O)(=O)c1ccc(Cl)cc1)N1C[C@H](c2ccccc2)C(c2ccc(Cl)cc2)=N1 [Compound A, (4S)-3-(4-chlorophenyl)-N′-[(4-chlorophenyl)sulfonyl]-N-methyl-4-phenyl-4,5-dihydro-1-H-pyrazole-1-carboximidamide]
inhibiting insulin secretion compared with Diazoxide (insulin secretion): more effective than Diazoxide

CC1=NS(=O)(=O)c2cc(Cl)ccc2N1 [Diazoxide, 7-chloro-3-methyl-4H-1,2,4-benzothiadiazine 1,1-dioxide]
effect on weight loss [1]: No effect | plasma level ([2]; after six months, mean dosage about 585 mg/day): about 49 mg/l | body weight ([2]; after six months, mean dosage about 585 mg/day, from about 114 kg): about 103 kg | tolerability of higher dosages ([2]; dose raised monthly from 150 to ultimately 900 mg/day): generally not tolerated due to side effects, in particular hyperglycaemia and edema | effect on blood glucose and insulin levels [3]: effective to normalize blood glucose and insulin levels | concentration at 150 min [4]: 50000 ± 5800 ng/mL | effect on fasting or postprandial glucose levels (plasma insulin levels; [9]): without affecting fasting or postprandial glucose levels | reduction of plasma insulin levels (plasma insulin levels; [9]): about 20% | effect on plasma glucose and insulin levels (plasma insulin levels; oral 150 and 225 mg per day divided in three dosages): no significant effect | change of LDL cholesterol ([5]; 6 months vs baseline): did not change significantly | change of systolic blood pressure ([5]; 6 months vs baseline): did not change | decrease of diastolic blood pressure ([5]; 6 months vs baseline, 95% CI: 6.5-15.4 mm Hg, P<0.001): 10.9±2.3 mm Hg | increase of adiponectin levels ([5]; 6 months vs baseline, P<0.001): 100±17% | increase of HbAlc ([5]; 6 months vs baseline, P<0.02): 0.5 % points | main dose limiting events ([5]; 14 men, six months, 300 to 900 mg/day, other adverse effects not observed): Hyperglycaemia (n=4) and edema (n=8) | Weight ([5]; P<0.001): 105.7 ± 3.5 kg | Weight ([5]; P<0.001, listed as DZX): 105.7 ± 3.8 kg | Bone Mass ([5]; DEXA after 6 months Diazoxide, baseline 3.35 ± 0.14, NS): 3.47 ± 0.11 kg | Fat Mass ([5]; DEXA after 6 months Diazoxide, baseline 40.1 ± 1.8, P<0.001): 30.7 ± 2.1 kg | Soft Tissue LBM ([5]; DEXA after 6 months Diazoxide, baseline 70.2 ± 2.0, NS): 70.6 ± 2.4 kg | change in soft tissue lean body mass or bone mass ([5]; DEXA, 6 months vs baseline): without a concomitant change | change of total body fat mass [5, 10]: −23.3% | decrease of total body fat mass [5, 10]: 9.5 ± 1.9 kg | plasma insulin level at which substantial loss of body fat (decrease of 10 kg or more) occurred ([5]; FIG. 5, fasting insulin at 6 months, mean DZX dose in this subgroup 630±56 mg, about 30 pmol/L): below 4.5 mU/L | Urate ([5]; after 6 months Diazoxide, baseline 0.37 ± 0.01, P<0.02): 0.32 ± 0.02 mmol/L | HDL-Cholesterol ([5]; after 6 months Diazoxide, baseline 1.12 ± 0.07, P<0.05): 1.25 ± 0.09 mmol/L | Triglycerides ([5]; after 6 months Diazoxide, baseline 2.17 ± 0.26, P<0.001): 1.08 ± 0.13 mmol/L | LDL-Cholesterol ([5]; after 6 months Diazoxide, baseline 3.19 ± 0.32, NS): 2.97 ± 0.23 mmol/L | HbA1c ([5]; after 6 months Diazoxide, baseline 5.4 ± 0.1, P<0.02): 5.9 ± 0.2% | Adiponectin ([5]; after 6 months Diazoxide, baseline 6.4 ± 0.5, P<0.001): 12.5 ± 1.2 mg/L | BMI ([5]; after 6 months Diazoxide, baseline 33.8 ± 0.5, P<0.001): 31.0 ± 0.7 kg/m^2 | Diastolic BP ([5]; after 6 months Diazoxide, baseline 85.8 ± 2.1, P<0.001): 74.9 ± 2.1 mmHg | Waist circumference ([5]; after 6 months Diazoxide, P<0.001): 107.7 ± 2.2 cm | Waist circumference ([5]; after 6 months Diazoxide, P<0.001, listed as DZX): 107.7±2.2 cm | Systolic BP ([5]; after 6 months Diazoxide, baseline 128.8 ± 3.2, NS): 128.8 ± 3.0 mmHg | Glucosuria in fasting morning urine samples ([5]; during six months of treatment): not observed | discontinuation because of side-effects ([5]; of eighteen obese men included): two men stopped because of side-effects (rash and edema, respectively) | mean weight loss ([5]; subgroup with weight loss between 5 and 10% (4/14 men)): 6.7±0.5% | mean weight loss ([5]; subgroup with weight loss less than 5% (5/14 men)): 3.1±0.8% | mean weight loss ([5]; subgroup with weight loss more than 10% (5/14 men)): 15.7±0.7% | weight loss [6]: 9.8 kg | reduction of AUCIns ([7]; 6 months vs baseline, P<0.001): 63% | reduction of fasting insulin levels ([7]; 6 months vs baseline, P<0.001): 65% | reduction of post-meal insulin peak levels ([7]; 6 months vs baseline, P<0.001): 62% | increase of fasting glucose ([7]; 6 months vs baseline, P<0.01): 0.8 ± 0.3 mmol/L | rise of AUCGluc ([7]; 6 months vs baseline, P<0.02): 29% | increase of peak glucose ([7]; 6 months vs baseline, P=0.06): 1.4 ± 0.7 mmol/L | increase of whole body insulin sensitivity ([7]; 6 months vs baseline, printed 95% CI: 60-145%, P<0.001): 209% | Whole Body Insulin Sensitivity ([7]; after 6 months Diazoxide, baseline 3.0 ± 0.3, P<0.001): 8.8 ± 1.2 | Fasting glucose ([7]; after 6 months Diazoxide, baseline 5.5 ± 0.2, P<0.01): 6.3 ± 0.3 mmol/L | Fasting Insulin ([7]; after 6 months Diazoxide, baseline 18.0 ± 2.3, P<0.001): 5.6 ± 0.7 mU/L | Peak glucose ([7]; meal test after 6 months Diazoxide, baseline 8.4 ± 0.3, NS): 9.8 ± 0.7 mmol/L | AUC insulin ([7]; meal test after 6 months Diazoxide, baseline 16.6 ± 2.1, P<0.001): 5.4 ± 0.4 mU · 10^−3/L · min | Peak Insulin ([7]; meal test after 6 months Diazoxide, baseline 124 ± 17, P<0.001): 35 ± 4 mU/L

CCCCCCCCCCC[C@@H](C[C@@H]1OC(=O)[C@H]1CCCCCC)OC(=O)[C@H](CC(C)C)NC=O [Orlistat]
(placebo-subtracted) net weight loss [8]: ~3 kg

Cc1c(C(=O)NN2CCCCC2)nn(-c2ccc(Cl)cc2Cl)c1-c1ccc(Cl)cc1 [Rimonabant]
(placebo-subtracted) net weight loss [8]: about 6 kg

CC(C)CC(N(C)C)C1(c2ccc(Cl)cc2)CCC1 (stereo not shown) [Sibutramine]
(placebo-subtracted) net weight loss [8]: about 5 kg
